Patent US5464820A, “Specific inhibitors of tissue kallikrein” (priority 1993, dated 1995)
Several values for one entry are separate records, joined by “and”; a condition that tells them apart may be missing. Identical values can stand only once. Like-named read-outs stand apart in the source and are kept apart here. Values belong to the compound of their own block, whether it stands above or below them. Non-standard residues stand in square brackets, D forms with d. Residues, ends and D or L forms follow the SMILES beside them. No end group written: not given here. Phe(4-NH2) = Nc1ccc(C[C@H](N)C(=O)O)cc1; 1Nal = N[C@@H](Cc1cccc2ccccc12)C(=O)O; d(aIle) = CC[C@H](C)[C@@H](N)C(=O)O; hArg = N=C(N)NCCCC[C@H](N)C(=O)O; hPhe = N[C@@H](CCc1ccccc1)C(=O)O; dTle = CC(C)(C)[C@@H](N)C(=O)O; Phg = N[C@H](C(=O)O)c1ccccc1; hSer = N[C@@H](CCO)C(=O)O; ChCar = not defined here; dia = not defined here

Assays:
Format in all cases: biochemical
[1] = molecular target: porcine pancreatic kallikrein (PPK) (Sus scrofa, UniProt P00752); test: Inhibition of porcine pancreatic kallikrein, cleavage of chromogenic substrate S-2266 (KI)
Sequence of porcine pancreatic kallikrein (PPK) (P00752 8-87 limits assumed): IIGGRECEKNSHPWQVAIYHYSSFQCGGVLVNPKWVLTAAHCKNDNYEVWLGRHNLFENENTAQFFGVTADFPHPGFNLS
Sequence of porcine pancreatic kallikrein (PPK) (P00752 95-246 limits assumed): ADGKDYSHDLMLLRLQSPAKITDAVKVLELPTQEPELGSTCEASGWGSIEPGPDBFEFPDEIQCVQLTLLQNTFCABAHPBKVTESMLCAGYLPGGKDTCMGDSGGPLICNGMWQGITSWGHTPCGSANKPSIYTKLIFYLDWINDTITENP

[2] = molecular target: T1, human urinary kallikrein (HUK) (Homo sapiens, UniProt P06870); test: Inhibition of human urinary (tissue) kallikrein (KI); conditions: Table 4, Pro-X-Arg-Ser-Val-Gln; read-out: KI HUK
T1 construct: Human urinary kallikrein (HUK) was purified from human urine; from tissue
T1 sequence (P06870 25-262): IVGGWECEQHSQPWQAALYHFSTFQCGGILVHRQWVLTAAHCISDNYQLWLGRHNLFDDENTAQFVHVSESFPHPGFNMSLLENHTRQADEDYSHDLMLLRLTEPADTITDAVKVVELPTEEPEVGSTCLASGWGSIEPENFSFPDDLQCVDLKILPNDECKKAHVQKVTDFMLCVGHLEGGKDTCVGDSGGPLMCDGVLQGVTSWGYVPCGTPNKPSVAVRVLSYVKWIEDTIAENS
Protocol: Human urinary kallikrein (HUK) was purified from human urine. Briefly, urine was subjected to ultrafiltration to concentrate the protein components which were applied to approtinin-CH-Sepharose affinity columns. Active fractions from these columns were next applied to Sephadex G-100 gel filtration and collected as fractions. The pH of each fraction was determined immediately upon elution, and the fraction was neutralized by addition of 2.0 ml of 2M Tris-HCL buffer, pH 8.0. Porcine pancreatic 24-kallikrein (PPK), at 50 units/mg protein; 1.0 units hydrolyses 1.0 μM BAEE (benzoyl -L-arginine ethyl ester) to N-a-benzoyl-L-arginine/minute at pH 8.7 at 25° C., was purchased from Sigma Chemical Company (St. Louis, Mo.). […] All other enzymes were purchased from Sigma Chemical Company (St. Louis, Mo.).
Dixon plots were used for data reduction and for calculation of […].
(§1) Assay methods were based on the cleavage of chromogenic substrate S-2266 (D-Val-Leu-Arg-pNA) (Kabi; Charlotte, N.C.) by porcine pancreatic kallikrein (Sigma Chemical Company; St. Louis, Mo.) to yield an increase in absorbance at 405 nm. By changing the substrate and enzyme, the general method has been extended to measure the inhibition of human tissue kallikrein (HTK or human urinary kallikrein HUK), human plasma kallikrein (HPK), plasmin, and urokinase (UK). In all assays, the robot dilutes the inhibitor into a series of wells and adds substrate and buffer. Chromogenic reactions are started by the addition of enzyme. Changes in the absorbance at 405 nm in an array of wells were recorded. All manipulations were performed by the instrument from reservoirs containing substrate, inhibitor, diluent (water), buffer, or enzyme.

[3] = molecular target: human plasma kallikrein (HPK) (Homo sapiens, UniProt P03952); test: Inhibition of human plasma kallikrein (KI)
Sequence of human plasma kallikrein (HPK) (P03952 20-638): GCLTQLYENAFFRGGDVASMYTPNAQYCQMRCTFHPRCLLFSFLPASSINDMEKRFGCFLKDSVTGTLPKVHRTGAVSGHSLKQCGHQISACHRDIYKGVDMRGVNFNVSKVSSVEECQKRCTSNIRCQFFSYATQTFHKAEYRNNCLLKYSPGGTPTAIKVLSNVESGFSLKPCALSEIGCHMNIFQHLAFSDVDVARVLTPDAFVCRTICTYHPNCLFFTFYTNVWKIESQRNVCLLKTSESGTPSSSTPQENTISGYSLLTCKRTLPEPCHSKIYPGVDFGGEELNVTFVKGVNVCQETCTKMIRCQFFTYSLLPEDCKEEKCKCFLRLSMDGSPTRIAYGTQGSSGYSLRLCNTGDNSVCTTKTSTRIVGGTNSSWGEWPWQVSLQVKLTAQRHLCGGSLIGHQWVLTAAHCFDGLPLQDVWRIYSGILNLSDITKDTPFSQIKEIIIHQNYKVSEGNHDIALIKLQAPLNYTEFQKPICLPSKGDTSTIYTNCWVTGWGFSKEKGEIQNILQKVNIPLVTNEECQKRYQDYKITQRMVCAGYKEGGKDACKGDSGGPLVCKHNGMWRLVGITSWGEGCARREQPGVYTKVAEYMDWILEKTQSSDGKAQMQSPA
Description: as §1

[4] = Table 4, Pro-X-Arg-Ser-Val-Gln, read-out: KI PPK
[5] = Table 4, Pro-X-Arg-Ser-Val-Gln, read-out: KI HPK
[6] = Table 2, P3 substitutions, read-out: log KI (converted)
[7] = Table 5, Pro-Phe-Arg-X-Val-Gln, read-out: KI PPK
[8] = Table 5, Pro-Phe-Arg-X-Val-Gln, read-out: KI HPK

Compound: CC(C)[C@H](N)C(=O)N[C@@H](Cc1ccccc1)C(=O)N[C@@H](CCCCNC(=N)N)C(=O)N[C@@H](CC(N)=O)C(=O)N[C@@H](CCCCNC(=N)N)C(=O)N[C@@H](CCC(N)=O)C(N)=O [Val-Phe-hArg-Asn-hArg-Gln] (H-VF[hArg]N[hArg]Q-NH2)
Ki ([1]; Table 6, read-out: KI PPK): 2.9 µM and 10 µM
Ki ([3]; Table 6, HUK, read-out: KI HUK): 298 µM

Compound: CC(C)[C@H](N)C(=O)N[C@@H](Cc1ccccc1)C(=O)N[C@@H](CCCNC(=N)N)C(=O)N[C@@H](CC(N)=O)C(=O)N[C@@H](CC(N)=O)C(=O)N[C@@H](CCCNC(=N)N)C(N)=O [Val-Phe-Arg-Asn-Asn-Arg] (H-VFRNNR-NH2)
Ki ([3]; Table 6, HUK, read-out: KI HUK): 124 µM

Compound: ChCar-Phe-Arg-dia-Val-Gln (ChCar-FR[dia]VQ; reading uncertain; also: printed as ChCar-Phe-Arg-dia-Val-Gln)
Ki ([1]; Table 6, read-out: KI PPK): 114 µM
Ki ([3]; Table 6, HUK, read-out: KI HUK): 985 µM

Compound: CC(C)[C@H](N)C(=O)N[C@@H](Cc1ccccc1)C(=O)N[C@H](C=O)Cc1ccc(N)cc1 [KITDS-2, Val-Phe-Phe(4NH2)-aldehyde] (H-Val-Phe-[Phe(4-NH2)]-aldehyde)
Ki ([1]; Table 7, read-out: K1 PPK): 160 µM

Compound: N=C(N)NCCC[C@H](NC(=O)[C@H](CC(N)=O)NC(=O)[C@H](CCCNC(=N)N)NC(=O)[C@H](Cc1ccccc1)NC(=O)[C@@H](N)CCCNC(=N)N)C(=O)N[C@@H](CCC(N)=O)C(N)=O [Arg-Phe-Arg-Asn-Arg-Gln] (H-RFRNRQ-NH2)
Ki ([3]; Table 6, HUK, read-out: KI HUK): 52 µM

Compound: CC(C)[C@H](NC(=O)[C@H](CCO)NC(=O)[C@H](CCCNC(=N)N)NC(=O)[C@H](Cc1ccccc1)NC(=O)[C@@H]1CCCN1)C(=O)N[C@@H](CCC(N)=O)C(N)=O [Hse] (H-PFR[hSer]VQ-NH2)
Ki [1, 7]: 163 µM
Ki [3, 8]: 359 µM

Compound: CC(C)[C@H](N)C(=O)N[C@@H](Cc1ccccc1)C(=O)N[C@@H](CCCNC(=N)N)C(=O)N[C@@H](CC(N)=O)C(=O)N[C@@H](CCCNC(=N)N)C(=O)N[C@@H](CCC(N)=O)C(N)=O [Val-Phe-Arg-Asn-Arg-Gln] (H-VFRNRQ-NH2)
Ki ([3]; Table 6, HUK, read-out: KI HUK): 532 µM

Compound: CC(C)[C@H](NC(=O)[C@@H](CO)NC(=O)[C@H](CCCNC(=N)N)NC(=O)[C@H](Cc1ccccc1)NC(=O)[C@@H]1CCCN1)C(=O)N[C@@H](CCC(N)=O)C(N)=O [D-Ser] (H-PFR[dS]VQ-NH2)
Ki [1, 7]: 1120 µM

Compound: CC(C)[C@H](NC(=O)[C@H](C)NC(=O)[C@H](CCCNC(=N)N)NC(=O)[C@H](Cc1ccccc1)NC(=O)[C@@H]1CCCN1)C(=O)N[C@@H](CCC(N)=O)C(N)=O [Ala] (H-PFRAVQ-NH2)
Ki [1, 7]: 131 µM and 161 µM
Ki [3, 8]: 536 µM

Results, then the compound that gave them:

Ki [1, 4]: 130 µM
Ki [2]: 41 µM
Ki [3, 5]: 516 µM
Compound: CC(C)[C@H](NC(=O)[C@H](CO)NC(=O)[C@H](CCCNC(=N)N)NC(=O)[C@H](Cc1cccc2ccccc12)NC(=O)[C@@H]1CCCN1)C(=O)N[C@@H](CCC(N)=O)C(N)=O [KCH-7] (H-P[1Nal]RSVQ-NH2)

Ki [1, 6]: 75.9 µM
Compound: CC(C)[C@H](NC(=O)[C@H](CO)NC(=O)[C@H](CCCNC(=N)N)NC(=O)[C@H](Cc1ccccc1)NC(=O)[C@H](N)C(C)(C)C)C(=O)N[C@@H](CCC(N)=O)C(N)=O [KKI-84, [D-t-BuGly]-Phe-Arg-Ser-Val-Gln] (H-[dTle]FRSVQ-NH2)

Ki [1, 4]: 1320 µM
KI HPK ([3]; Table 4, Pro-X-Arg-Ser-Val-Gln): ni
Compound: CC(C)[C@H](NC(=O)[C@H](CO)NC(=O)[C@H](CCCNC(=N)N)NC(=O)[C@@H](NC(=O)[C@@H]1CCCN1)c1ccccc1)C(=O)N[C@@H](CCC(N)=O)C(N)=O [KCH-5] (H-P[Phg]RSVQ-NH2)

Ki [1, 6]: 57.5 µM
Compound: CC[C@H](C)[C@@H](N)C(=O)N[C@@H](Cc1ccccc1)C(=O)N[C@@H](CCCNC(=N)N)C(=O)N[C@@H](CO)C(=O)N[C@H](C(=O)N[C@@H](CCC(N)=O)C(N)=O)C(C)C [KKI-105] (H-[d(aIle)]FRSVQ-NH2)

Ki [1, 4]: 402 µM
Ki [3, 5]: 545 µM
Compound: CC(C)[C@H](NC(=O)[C@H](CO)NC(=O)[C@H](CCCNC(=N)N)NC(=O)[C@H](CCc1ccccc1)NC(=O)[C@@H]1CCCN1)C(=O)N[C@@H](CCC(N)=O)C(N)=O [KCH-2] (H-P[hPhe]RSVQ-NH2)

Ki [1, 4]: 230 µM
Ki [3, 5]: 449 µM
Compound: CC(C)[C@H](NC(=O)[C@H](CO)NC(=O)[C@H](CCCNC(=N)N)NC(=O)[C@H](Cc1c[nH]c2ccccc12)NC(=O)[C@@H]1CCCN1)C(=O)N[C@@H](CCC(N)=O)C(N)=O [KCH-11] (H-PWRSVQ-NH2)
